Laboratory results published in US20230131192A1, “1H-PYRAZOLO[4,3-d]PYRIMIDINE COMPOUNDS AS TOLL-LIKE RECEPTOR 7 (TLR7) AGONISTS” (BRISTOL-MYERS SQUIBB COMPANY, priority 2020, published 2023).

Legend:
human TLR7 = biological target: T1, human TLR7 (Homo sapiens, UniProt Q9NYK1); assay: Human TLR7 agonist (reporter) activity assay, HEK-Blue TLR7 cells, SEAP reporter; assay type: cell-based; details: 18 h treatment, average where assay was performed multiple times, read-out: hTLR7 Agonism EC50
T1 construct: host or cells: HEK-Blue TLR7 cells (engineered human embryonic kidney cells)
T1 sequence (Q9NYK1 27-1049): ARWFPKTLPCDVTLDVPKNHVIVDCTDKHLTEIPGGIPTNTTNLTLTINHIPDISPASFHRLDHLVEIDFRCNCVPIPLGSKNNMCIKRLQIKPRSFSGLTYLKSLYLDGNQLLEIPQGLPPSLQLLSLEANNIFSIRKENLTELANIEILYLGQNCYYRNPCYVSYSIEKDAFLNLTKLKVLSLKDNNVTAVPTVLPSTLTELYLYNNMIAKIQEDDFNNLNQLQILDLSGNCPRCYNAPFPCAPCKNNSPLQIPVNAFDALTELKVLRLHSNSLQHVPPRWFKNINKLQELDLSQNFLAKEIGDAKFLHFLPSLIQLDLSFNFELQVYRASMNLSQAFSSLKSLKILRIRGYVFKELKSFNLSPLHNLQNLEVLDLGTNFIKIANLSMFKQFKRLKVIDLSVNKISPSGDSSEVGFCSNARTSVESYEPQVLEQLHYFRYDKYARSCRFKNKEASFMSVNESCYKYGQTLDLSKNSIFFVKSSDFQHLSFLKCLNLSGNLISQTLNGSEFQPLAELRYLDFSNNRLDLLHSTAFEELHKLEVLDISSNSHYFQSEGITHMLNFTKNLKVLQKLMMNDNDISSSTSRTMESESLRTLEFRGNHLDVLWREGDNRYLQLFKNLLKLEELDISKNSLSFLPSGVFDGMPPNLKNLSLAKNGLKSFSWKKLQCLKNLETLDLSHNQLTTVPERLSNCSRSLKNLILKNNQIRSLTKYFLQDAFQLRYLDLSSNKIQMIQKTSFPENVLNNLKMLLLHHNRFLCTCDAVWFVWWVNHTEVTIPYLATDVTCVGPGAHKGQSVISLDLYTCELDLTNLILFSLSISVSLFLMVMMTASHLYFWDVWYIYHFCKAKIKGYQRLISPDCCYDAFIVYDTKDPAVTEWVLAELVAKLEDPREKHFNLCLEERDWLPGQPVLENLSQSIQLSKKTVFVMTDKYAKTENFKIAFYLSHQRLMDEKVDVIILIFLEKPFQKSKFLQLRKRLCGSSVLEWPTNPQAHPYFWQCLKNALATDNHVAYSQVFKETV
Experimental: This procedure describes a method for assaying human TLR7 (hTLR7) agonist activity of the compounds disclosed in this specification.
HEK-Blue™ TLR7 cells were added to each well of a 384-well tissue-culture plate (15,000 cells per well) and incubated 16-18 h at 37° C., 5% CO2. Compounds (100 nl) were dispensed into wells containing the HEK-Blue™ TLR cells and the treated cells were incubated at 37° C., 5% CO2. After 18 h treatment ten microliters of freshly-prepared Quanti-Blue™ reagent (Invivogen) was added to each well, incubated for 30 min (37° C., 5% CO2) and SEAP levels measured using an Envision plate reader (OD=620 nm). The half maximal effective concentration values (EC50; compound concentration which induced a response halfway between the assay baseline and maximum) were calculated.

CD69 = assay: Induction of CD69 in human whole blood; assay type: cell-based; details: 17 hrs, CD69 surface staining, 100% set to 1 uM of resiquimod, average where assay was performed multiple times, read-out: hWB CD69 EC50
Experimental: The induction of Type I interferon (IFN) MX-1 genes and the B-cell activation marker CD69 are downstream events that occur upon activation of the TLR7 pathway. The following is a human whole blood assay that measures their induction in response to a TLR7 agonist.
Heparinized human whole blood was harvested from human subjects and treated with test TLR7 agonist compounds at 1 mM. The blood was diluted with RPMI 1640 media and Echo was used to predot 10 nL per well giving a final concentration of 1 uM (10 nL in 10 uL of blood). After mixing on a shaker for 30 sec, the plates were covered and placed in a 37° C. chamber for o/n=17 hrs. Fixing/lysis buffer was prepared (5×→1× in H2O, warm at 37° C.; Cat # BD 558049) and kept the perm buffer (on ice) for later use.
For surface markers staining (CD69): prepared surface Abs: 0.045 ul hCD14-FITC (ThermoFisher Cat # MHCD1401)+0.6 ul hCD19-ef450 (ThermoFisher Cat #48-0198-42)+1.5 ul hCD69-PE (cat # BD555531)+0.855 ul FACS buffer. Added 3 ul/well, spin1000 rpm for 1 min and mixed on shaker for 30 sec, put on ice for 30 mins. Stop stimulation after 30 minutes with 70 uL of prewarmed 1× fix/lysis buffer and use Feliex mate to resuspend (15 times, change tips for each plate) and incubate at 37 C for 10 minutes.
Centrifuge at 2000 rpm for 5 minutes aspirate with HCS plate washer, mix on shaker for 30 sec and then wash with 70 uL in dPBS and pelleted 2×s (2000 rpm for 5 min) and 50 ul wash in FACS buffer pelleted 1×s(2000 rpm for 5 min). Mix on shaker for 30 sec. For Intracellular markers staining (MX-1): Add 50 ul of BD Perm buffer III and mix on shaker for 30 sec. Incubate on ice for 30 minutes (in the dark). Wash with 50 uL of FACS buffer 2× (spin @2300 rpm×5 min after perm) followed by mixing on shaker for 30 sec. Resuspended in 20 ul of FACS buffer containing MX1 antibody ( )(4812)-Alexa 647: Novus Biologicals #NBP2-43704AF647) 20 ul FACS bf+0.8 ul hlgG+0.04 ul MX-1. Spin 1000 rpm for 1 min, mix on shaker for 30se and the samples were incubated at RT in the dark for 45 minutes followed by washing 2×FACS buffer (spin @2300 rpm×5 min after perm). Resuspend 20 ul (35 uL total per well) of FACS buffer and cover with foil and place in 4° C. to read the following day. Plates were read on iQuePlus. The results were loaded into toolset and […] curves are generated in curve master. The y-axis 100% is set to 1 uM of resiquimod.

EC50 (human TLR7) [µM] | EC50 (CD69) [µM] | Structure (SMILES)
0.1 | 0.0405 | COc1cc(CN2CCN(C)CC2)ccc1Cn1nc(C)c2nc(N)nc(NCc3cc(C)on3)c21 [Compound 113, 1-({2-methoxy-4-[(4-methylpipeazin-1-yl)methyl]phenyl}methyl)-3-methyl-N7-[(5-methyl-1,2-oxazol-3-yl)methyl]-1H-pyrazolo[4,3-d]pyrimidine-5,7-diamine]
0.0672 | 0.0155 | COc1cc(CN2CCN(C)CC2)ccc1Cn1ncc2nc(N)nc(NCc3noc(C)n3)c21 [Compound 115, 1-({2-methoxy-4-[(4-methylpiperazin-1-yl)methyl]phenyl}methyl)-N7-[(5-methyl-1,2,4-oxadiazol-3-yl)methyl]-1H-pyrazolo[4,3-d]pyrimidine-5,7-diamine]
0.0186 | 0.0014 | COc1cc(CN2CCN(CCO)CC2)ccc1Cn1ncc2nc(N)nc(NCc3noc(C)n3)c21 [Compound 117, 2-[4-({4-[(5-amino-7-{[(5-methyl-1,2,4-oxadiazol-3-yl)methyl]amino}-1H-pyrazolo[4,3-d]pyrimidin-1-yl)methyl]-3-methoxyphenyl}methyl)piperazin-1-yl]ethan-1-ol]
0.345 | 0.299 | COc1cc(CN2CCN(S(C)(=O)=O)CC2)ccc1Cn1ncc2nc(N)nc(NCc3noc(C)n3)c21 [Compound 120, 1-({4-[(4-methanesulfonylpiperazin-1-yl)methyl]-2-methoxyphenyl}methyl)-N7-[(5-methyl-1,2,4-oxadiazol-3-yl)methyl]-1H-pyrazolo[4,3-d]pyrimidine-5,7-diamine]
0.656 | 0.289 | COc1cc(CN2CCS(=O)(=O)CC2)ccc1Cn1ncc2nc(N)nc(NCc3noc(C)n3)c21 [Compound 121, 4-({4-[(5-amino-7-{[(5-methyl-1,2,4-oxadiazol-3-yl)methyl]amino}-1H-pyrazolo[4,3-d]pyrimidin-1-yl)methyl]-3-methoxyphenyl}methyl)-1λ^6-thiomorpholine-1,1-dione]
0.74 | 0.0253 | COc1cc(CN2CCN(CCO)CC2)ccc1Cn1nc(C)c2nc(N)nc(NCC[C@H](O)C3CC3)c21 [Compound 126, (1S)-3-({5-amino-1-[(4-{[4-(2-hydroxyethyl)piperazin-1-yl]methyl}-2-methoxyphenyl)methyl]-3-methyl-1H-pyrazolo[4,3-d]pyrimidin-7-yl}amino)-1-cyclopropylpropan-1-ol]
0.0337 | 0.0075 | COc1cc(CN2CCN(CCO)CC2)ccc1Cn1ncc2nc(N)nc(NCc3noc(C4CC4)n3)c21 [Compound 128, 2-[4-({4-[(5-amino-7-{[(5-cyclopropyl-1,2,4-oxadiazol-3-yl)methyl]amino}-1H-pyrazolo[4,3-d]pyrimidin-1-yl)methyl]-3-methoxyphenyl}methyl)piperazin-1-yl]ethan-1-ol]
0.0478 | 0.0053 | COc1cc(CN2CCN(C)CC2)ccc1Cn1ncc2nc(N)nc(NCc3noc(C4CC4)n3)c21 [Compound 129, N7-[(5-cyclopropyl-1,2,4-oxadiazol-3-yl)methyl]-1-({2-methoxy-4-[(4-methylpiperazin-1-yl)methyl]phenyl}methyl)-1H-pyrazolo[4,3-d]pyrimidine-5,7-diamine]

The next lines start with the compound.

Structure (SMILES) | EC50 (human TLR7) [µM] | EC50 (CD69) [µM]
COc1cc(CNC2CCOCC2)ccc1Cn1ncc2nc(N)nc(NCc3noc(C)n3)c21 [Compound 114, 1-[(2-methoxy-4-{[(oxan-4-yl)amino]methyl}phenyl)methyl]-N7-[(5-methyl-1,2,4-oxadiazol-3-yl)methyl]-1H-pyrazolo[4,3-d]pyrimidine-5,7-diamine] | 0.0791 | 0.0196
COc1cc(CN2CC(OC)C2)ccc1Cn1ncc2nc(N)nc(NCc3noc(C)n3)c21 [Compound 118, 1-({2-methoxy-4-[(3-methoxyazetidin-1-yl)methyl]phenyl}methyl)-N7-[(5-methyl-1,2,4-oxadiazol-3-yl)methyl]-1H-pyrazolo[4,3-d]pyrimidine-5,7-diamine] | 0.0479 | 0.0043
COc1cc(CN2CCC(S(C)(=O)=O)CC2)ccc1Cn1ncc2nc(N)nc(NCc3noc(C)n3)c21 [Compound 119, 1-({4-[(4-methanesulfonylpiperidin-1-yl)methyl]-2-methoxyphenyl}methyl)-N7-[(5-methyl-1,2,4-oxadiazol-3-yl)methyl]-1H-pyrazolo[4,3-d]pyrimidine-5,7-diamine] | 0.298 | 0.0347
COc1cc(CNC2CN(S(C)(=O)=O)C2)ccc1Cn1ncc2nc(N)nc(NCc3noc(C)n3)c21 [Compound 122, 1-[(4-{[(1-methanesulfonylazetidin-3-yl)amino]methyl}-2-methoxyphenyl)methyl]-N7-[(5-methyl-1,2,4-oxadiazol-3-yl)methyl]-1H-pyrazolo[4,3-d]pyrimidine-5,7-diamine] | 0.57 | 0.221
COc1cc(CNC2CCN(S(C)(=O)=O)CC2)ccc1Cn1ncc2nc(N)nc(NCc3noc(C)n3)c21 [Compound 123, 1-[(4-{[(1-methanesulfonylpiperidin-4-yl)amino]methyl}-2-methoxyphenyl)methyl]-N7-[(5-methyl-1,2,4-oxadiazol-3-yl)methyl]-1H-pyrazolo[4,3-d]pyrimidine-5,7-diamine] | 0.196 | 0.0182
COc1cc(CN2CC(OC)C2)ccc1Cn1ncc2nc(N)nc(N[C@H](CO)CC3CC3)c21 [Compound 125, (2S)-2-{[5-amino-1-({2-methoxy-4-[(3-methoxyazetidin-1-yl)methyl]phenyl}methyl)-1H-pyrazolo[4,3-d]pyrimidin-7-yl]amino}-3-cyclopropylpropan-1-ol] | 0.138 | 0.0152
COc1cc(CNC2CCOCC2)ccc1Cn1ncc2nc(N)nc(NCc3noc(C4CC4)n3)c21 [Compound 127, N7-[(5-cyclopropyl-1,2,4-oxadiazol-3-yl)methyl]-1-[(2-methoxy-4-{[(oxan-4-yl)amino]methyl}phenyl)methyl]-1H-pyrazolo[4,3-d]pyrimidine-5,7-diamine] | 0.0724 | 0.0255
